Reference: US8431593B2, “Heteroaryl amide derivatives” (H. Lundbeck A/S, priority 2006, dated 2013)

What follows are molecules tested against T1, P2X7 receptor (Homo sapiens, UniProt Q99572) (assay: P2X7 calcium mobilization assay, high throughput, antagonist activity (Example 4A)). Conditions: 50% decrease in the fluorescence response of cells exposed to 80 μM 2′(3′)-O-(4-benzoyl-benzoyl)adenosine 5′-triphosphate; Example 4A; read-out: IC50.
T1 construct: host or cells: SH-SY5Y
T1 sequence (Q99572 1-595): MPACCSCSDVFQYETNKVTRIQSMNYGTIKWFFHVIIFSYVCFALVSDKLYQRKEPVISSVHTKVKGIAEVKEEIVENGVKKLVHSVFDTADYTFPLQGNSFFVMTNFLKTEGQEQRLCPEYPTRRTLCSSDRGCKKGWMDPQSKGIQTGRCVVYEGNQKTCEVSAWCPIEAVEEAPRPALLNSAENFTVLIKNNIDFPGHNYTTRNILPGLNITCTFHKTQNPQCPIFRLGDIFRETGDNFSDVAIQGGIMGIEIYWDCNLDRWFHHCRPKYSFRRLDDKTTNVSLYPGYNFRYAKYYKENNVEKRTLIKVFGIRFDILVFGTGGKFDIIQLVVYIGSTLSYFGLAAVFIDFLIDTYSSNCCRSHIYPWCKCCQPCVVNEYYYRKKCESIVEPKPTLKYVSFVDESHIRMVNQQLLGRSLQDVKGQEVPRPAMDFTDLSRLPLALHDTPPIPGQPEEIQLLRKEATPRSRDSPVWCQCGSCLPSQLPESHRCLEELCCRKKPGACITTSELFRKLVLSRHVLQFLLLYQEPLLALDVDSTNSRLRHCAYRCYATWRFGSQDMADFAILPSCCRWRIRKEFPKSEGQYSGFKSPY
Assay type: cell-based
Outline: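 Cells plated at 100,000/well the day before were dye-loaded for 1 h, then incubated 1 h at room temperature with test compound before agonist-triggered calcium mobilization was read on FLIPR Tetra. Maximum RFU was corrected by subtracting the no-agonist control and related to the agonist-control response.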

IC50, < 2000 nM:
O=C(CC12CC3CC(CC(C3)C1)C2)Nc1cccc2nc(C(=O)N3CCCC(O)C3)cn12 (stereo not shown) [Compound 418, 2-adamantan-1-yl-N-{2-[(3-hydroxypiperidin-1-yl)carbonyl]imidazo [1,2-a]pyridin-5-yl}acetamide]
O=C(CC12CC3CC(CC(C3)C1)C2)Nc1cccc2nc(C(=O)N3CC[C@H](O)C3)cn12 [Compound 419, 2-adamantan-1-yl-N-(2-{[(3S)-3-hydroxypyrrolidin-1-yl]carbonyl}imidazo [1,2-a]pyridin-5-yl)acetamide]
O=C(CC12CC3CC(CC(C3)C1)C2)Nc1cccc2nc(C(=O)N3CCC(CCO)CC3)cn12 [Compound 423, 2-adamantan-1-yl-N-(2-{[4-(2-hydroxyethyl)piperidin-1-yl]carbonyl}imidazo [1,2-a]pyridin-5-yl)acetamide]
O=C(CC12CC3CC(CC(C3)C1)C2)Nc1cccc2nc(C(=O)N3CCC(CO)CC3)cn12 [Compound 424, 2-adamantan-1-yl-N-(2-{[4-(hydroxymethyl)piperidin-1-yl]carbonyl}imidazo[1,2-a]pyridin-5-yl)acetamide]
O=C(CC12CC3CC(CC(C3)C1)C2)Nc1cccc2nc(C(=O)N3CCC(O)CC3)cn12 [Compound 426, 2-adamantan-1-yl-N-{2-[(4-hydroxypiperidin-1-yl)carbonyl]imidazo [1,2-a]pyridin-5-yl}acetamide]
CN(CCC(C)(C)O)C(=O)c1cn2c(NC(=O)CC34CC5CC(CC(C5)C3)C4)cccc2n1 [Compound 431, 5-[(adamantan-1-ylacetyl)amino]-N-(3-hydroxy-3-methylbutyl)-N-methylimidazo[1,2-a]pyridine-2-carboxamide]
CC(C)(CO)NC(=O)c1cn2c(NC(=O)CC34CC5CC(CC(C5)C3)C4)cccc2n1 [Compound 437, 5-[(adamantan-1-ylacetyl)amino]-N-(2-hydroxy-1,1-dimethylethyl)imidazo [1,2-a]pyridine-2-carboxamide]
O=C(CC12CC3CC(CC(C3)C1)C2)Nc1cccc2nc(C(=O)NC3(CO)CCCC3)cn12 [Compound 441, 5-[(adamantan-1-ylacetyl)amino]-N-[1-(hydroxymethyl)cyclopentyl]imidazo[1,2-a]pyridine-2-carboxamide]
O=C(NCC12CC3CC(CC(C3)C1)C2)c1cccc2nc(CS(=O)(=O)c3nnc[nH]3)cn12 [Compound 449, N-(adamantan-1-ylmethyl)-2-[(4H-1,2,4-triazol-3-ylsulfonyl)methyl] imidazo [1,2-a]pyridine-5-carboxamide]
CCOC(=O)C(C)(C)c1cn2c(C(=O)NCC34CC5CC(CC(C5)C3)C4)cccc2n1 [Compound 450, ethyl 2-{5-[(adamantan-1-ylmethyl)carbamoyl]imidazo[1,2-a]pyridin-2-yl}-2-methylpropanoate]
CCOC(=O)C(C)(C)c1cn2c(C(=O)N(C)CC34CC5CC(CC(C5)C3)C4)cccc2n1 [Compound 451, ethyl 2-{5-[(adamantan-1-ylmethyl)(methyl)carbamoyl]imidazo [1,2-a]pyridin-2-yl} -2-methyl-propanoate]
CCOC(=O)N1CCN(C(=O)c2cn3c(C(=O)NC[C@@H]4CC[C@H]5C[C@@H]4C5(C)C)cccc3n2)CC1 [Compound 452, ethyl 4-{[5-({[(1S,2R,5S)-6,6-dimethylbicyclo[3.1.1]hept-2-yl]methyl}carbamoyl)imidazo[1,2-a]pyridin-2-yl]carbonyl}piperazine-1-carboxylate]
CC1(C)[C@H]2CC[C@@H](CNC(=O)c3cccc4nc(C(=O)N5CCCC5)cn34)[C@@H]1C2 [Compound 454, N-{[(1S,2R,5S)-6,6-dimethylbicyclo[3.1.1]hept-2-yl]methyl}-2-(pyrrolidin-1-ylcarbonyl) imidazo[1,2-a]pyridine-5-carboxamide]
CCN(CC)C(=O)C1CCCN(C(=O)c2cn3c(C(=O)NC[C@@H]4CC[C@H]5C[C@@H]4C5(C)C)cccc3n2)C1 (stereo partly drawn) [Compound 456, 2-{[3-(diethylcarbamoyl)piperidin-1-yl]carbonyl}-N-{[(1S,2R,5S)-6,6-dimethylbicyclo[3.1.1]hept-2-yl]methyl}imidazo[1,2-a]pyridine-5-carboxamide]
CC(=O)NC1CCN(C(=O)c2cn3c(C(=O)NC[C@@H]4CC[C@H]5C[C@@H]4C5(C)C)cccc3n2)C1 (stereo partly drawn) [Compound 457, 2-[(3-acetamidopyrrolidin-1-yl)carbonyl]-N-{[(1S,2R,5S)-6,6-dimethylbicyclo[3.1.1]hept-2-yl]methyl}imidazo[1,2-a]pyridine-5-carboxamide]
CCCN(C)C(=O)c1cn2c(C(=O)NC[C@@H]3CC[C@H]4C[C@@H]3C4(C)C)cccc2n1 [Compound 460, 5-N-{[(1S,2R,5S)-6,6-dimethylbicyclo[3.1.1]hept-2-yl]methyl}-2-N-methyl-2-N-propylimidazo[1,2-a]pyridine-2,5-dicarboxamide]
CC1(C)[C@H]2CC[C@@H](CNC(=O)c3cccc4nc(C(=O)N5CCSCC5)cn34)[C@@H]1C2 [Compound 462, N-{[(1S,2R,5S)-6,6-dimethylbicyclo[3.1.1]hept-2-yl]methyl}-2-(thiomorpholin-4-ylcarbonyl)imidazo[1,2-a]pyridine-5-carboxamide]
CC1CCN(C(=O)c2cn3c(C(=O)NC[C@@H]4CC[C@H]5C[C@@H]4C5(C)C)cccc3n2)CC1 [Compound 463, N-{[(1S,2R,5S)-6,6-dimethylbicyclo[3.1.1]hept-2-yl]methyl}-2-[(4-methylpiperidin-1-yl)carbonyl]imidazo[l, 2-a]pyridine-5-carboxamide]
CC1(C)[C@H]2CC[C@@H](CNC(=O)c3cccc4nc(C(=O)N5CCOCC5)cn34)[C@@H]1C2 [Compound 464, N-{[(1S,2R,5S)-6,6-dimethylbicyclo[3.1.1]hept-2-yl]methyl}-2-(morpholin-4-ylcarbonyl)imidazo [1,2-a]pyridine-5-carboxamide]
CC1(C)[C@H]2CC[C@@H](CNC(=O)c3cccc4nc(C(=O)N5CCCCC5)cn34)[C@@H]1C2 [Compound 465, N-{[(1S,2R,5S)-6,6-dimethylbicyclo[3.1.1]hept-2-yl]methyl}-2-(piperidin-1-ylcarbonyl)imidazo[1,2-a]pyridine-5-carboxamide]
COCCN(C)C(=O)c1cn2c(C(=O)NC[C@@H]3CC[C@H]4C[C@@H]3C4(C)C)cccc2n1 [Compound 466, 5-N-{[(1S,2R,5S)-6,6-dimethylbicyclo[3.1.1]hept-2-yl]methyl}-2-N-(2-methoxyethyl)-2-N-methylimidazo[1,2-a]pyridine-2,5-dicarboxamide]
CC(C)CN(C)C(=O)c1cn2c(C(=O)NC[C@@H]3CC[C@H]4C[C@@H]3C4(C)C)cccc2n1 [Compound 467, 5-N-{[(1S,2R,5S)-6,6-dimethylbicyclo[3.1.1]hept-2-yl]methyl}-2-N-isobutyl-2-N-methylimidazo[1,2-a]pyridine-2,5-dicarboxamide]

Same assay, conditions: fluorescence response of cells exposed to 80 μM 2′(3′)-O-(4-benzoyl-benzoyl)adenosine 5′-triphosphate; Example 4A; read-out: IC50

IC50, < 2000 nM:
CCCCN(CCO)C(=O)c1cn2c(NC(=O)CC34CC5CC(CC(C5)C3)C4)cccc2n1 [Compound 412, 5-[(adamantan-l-ylacetyl)amino]-N-butyl-N-(2-hydroxyethyl)imidazo [1,2-a]pyridine-2-carboxamide]
CC(C)N(CCO)C(=O)c1cn2c(NC(=O)CC34CC5CC(CC(C5)C3)C4)cccc2n1 [Compound 413, 5-[(adamantan-1-ylacetyl)amino]-N-(2-hydroxyethyl)-N-isopropylimidazo[1,2-a]pyridine-2-carboxamide]
CCN(CCO)C(=O)c1cn2c(NC(=O)CC34CC5CC(CC(C5)C3)C4)cccc2n1 [Compound 414, 5-[(adamantan-1-ylacetyl)amino]-N-ethyl-N-(2-hydroxyethyl)imidazo [1,2-a]pyridine-2-carboxamide]
O=C(CC12CC3CC(CC(C3)C1)C2)Nc1cccc2nc(C(=O)N3CCCCC3CO)cn12 (stereo not shown) [Compound 415, 2-adamantan-1-yl-N-(2-{[2-(hydroxymethyl)piperidin-1-yl]carbonyl}imidazo[1,2-a]pyridin-5-yl)acetamide]
CC(C)N(CCCO)C(=O)c1cn2c(NC(=O)CC34CC5CC(CC(C5)C3)C4)cccc2n1 [Compound 416, 5-[(adamantan-1-ylacetyl)amino]-N-(3-hydroxypropyl)-N-isopropylimidazo[1,2-a]pyridine-2-carboxamide]
CCN(CCCO)C(=O)c1cn2c(NC(=O)CC34CC5CC(CC(C5)C3)C4)cccc2n1 [Compound 417, 5-[(adamantan-1-ylacetyl)amino]-N-ethyl-N-(3-hydroxypropyl) imidazo [1,2-a]pyridine-2-carboxamide]
